Reference: publication PMC6114082, “Synthesis of aminophenylhydroxamate and aminobenzylhydroxamate derivatives and in vitro screening for antiparasitic and histone deacetylase inhibitory activity” (International Journal for Parasitology: Drugs and Drug …, 2018)

Tests used:
[1] = system: L. infantum MHOM/MA/67/ITMAP-264; assay: Antileishmanial activity, L. infantum promastigotes (luciferase expressing strain); type: cell-based, Leishmania infantum
Description: The antitrypanosomatid activity of the compounds was ascertained as follows. Leishmania parasites were cultured at 26 °C in SDM-79 medium supplemented with 10% fetal calf serum (FCS), and the antileishmanial activity was determined according to a previously published protocol for LUC-expressing and wild-type Leishmania ([Sereno et al., 2001], [Abbassi et al., 2008]). Trypanosoma brucei gambiense were grown at 26 °C in Cunningham's medium supplemented with 10% FCS, 2 mM GlutaMAX-1 (Gibco, USA), 100 U/ml penicillin, 100 μg/ml streptomycin and […] bovine hemin. The epimastigote form of Trypanosoma cruzi (strain Y cl7 scl2, lineage Tc2) (kindly provided by Philippe Truc and Christian Barnabé, UMR 177 IRD-CIRAD InterTryp, Montpellier, France) were grown at 26 °C in liver infusion tryptose (LIT) medium, supplemented with 10% FCS, 2 mM GlutaMAX™-I, 100 U/ml penicillin, 100 μg/ml streptomycin and bovine hemin (20 mg/l) (Gibco). The antitrypanosomatids activity was determined using a protocol that was initialy set up for wild-type Leishmania ([Abbassi et al., 2008]). To assess the drug activity on Toxoplasma gondii, confluent human foreskin fibroblast (HFF) monolayers were infected with YFP-type I Rh kindly provided by B. Striepen, see ([Striepen et al., 1998]) or Tomato-type II Pru kindly provided by N. Blanchard (Toulouse), expressing parasites at 5 × 10^4 per well, which were then centrifuged for 30 s at 1300 rpm and incubated for 30 min in a water bath at 37 °C to allow invasion. The wells were then washed three times with PBS to eliminate extracellular parasites, and the drugs were added at various concentrations ranging from 1 to 50 μM. After incubation for 24 h at 37 °C in a humidified atmosphere containing 5% CO2, the cells were fixed in 2.5% methanol-free formaldehyde (Tebu-bio)/PBS for 30 min at room temperature. Nuclei were stained with Hoechst 33258 (2 μg/ml, Molecular Probes) for 20 min and then washed three times with water for 10 min each time. The number of infected cells, i.e., cells harboring a parasitophorous vacuole, and the number of parasites per vacuole were determined using an Olympus ScanR microscope ( × 20 objective) and ScanR software. The parasitic index in % compared to the control was calculated as follows: (PI=((number of parasite/100 cells in treated wells) x (% of infected macrophage in treated well)/(number of parasite/100 cells in untreated wells) x (% of infected macrophage in untreated wells))*100).

[2] = system: HeLa nuclear extract (HDAC 1, 2, 6, and 8 predominant); assay: Fluorometric HDAC assay, HeLa nuclear extract; type: biochemical
Description: (§1) The HDACi effect against HeLa nuclear extracts and recombinant proteins were measured using a fluorometric HDAC assay kit (Active Motif, Belgium) according to the manufacturer's instructions. […] A negative control containing trichostatin A at a final concentration of 2 μM was analyzed for each independent experiment.

[3] = target: T1, HDAC 6 (Homo sapiens, UniProt Q9UBN7); assay: Fluorometric HDAC assay, recombinant HDAC6; type: biochemical
T1 construct: purchased Active Motif, Belgium
T1 sequence (Q9UBN7 1-1215): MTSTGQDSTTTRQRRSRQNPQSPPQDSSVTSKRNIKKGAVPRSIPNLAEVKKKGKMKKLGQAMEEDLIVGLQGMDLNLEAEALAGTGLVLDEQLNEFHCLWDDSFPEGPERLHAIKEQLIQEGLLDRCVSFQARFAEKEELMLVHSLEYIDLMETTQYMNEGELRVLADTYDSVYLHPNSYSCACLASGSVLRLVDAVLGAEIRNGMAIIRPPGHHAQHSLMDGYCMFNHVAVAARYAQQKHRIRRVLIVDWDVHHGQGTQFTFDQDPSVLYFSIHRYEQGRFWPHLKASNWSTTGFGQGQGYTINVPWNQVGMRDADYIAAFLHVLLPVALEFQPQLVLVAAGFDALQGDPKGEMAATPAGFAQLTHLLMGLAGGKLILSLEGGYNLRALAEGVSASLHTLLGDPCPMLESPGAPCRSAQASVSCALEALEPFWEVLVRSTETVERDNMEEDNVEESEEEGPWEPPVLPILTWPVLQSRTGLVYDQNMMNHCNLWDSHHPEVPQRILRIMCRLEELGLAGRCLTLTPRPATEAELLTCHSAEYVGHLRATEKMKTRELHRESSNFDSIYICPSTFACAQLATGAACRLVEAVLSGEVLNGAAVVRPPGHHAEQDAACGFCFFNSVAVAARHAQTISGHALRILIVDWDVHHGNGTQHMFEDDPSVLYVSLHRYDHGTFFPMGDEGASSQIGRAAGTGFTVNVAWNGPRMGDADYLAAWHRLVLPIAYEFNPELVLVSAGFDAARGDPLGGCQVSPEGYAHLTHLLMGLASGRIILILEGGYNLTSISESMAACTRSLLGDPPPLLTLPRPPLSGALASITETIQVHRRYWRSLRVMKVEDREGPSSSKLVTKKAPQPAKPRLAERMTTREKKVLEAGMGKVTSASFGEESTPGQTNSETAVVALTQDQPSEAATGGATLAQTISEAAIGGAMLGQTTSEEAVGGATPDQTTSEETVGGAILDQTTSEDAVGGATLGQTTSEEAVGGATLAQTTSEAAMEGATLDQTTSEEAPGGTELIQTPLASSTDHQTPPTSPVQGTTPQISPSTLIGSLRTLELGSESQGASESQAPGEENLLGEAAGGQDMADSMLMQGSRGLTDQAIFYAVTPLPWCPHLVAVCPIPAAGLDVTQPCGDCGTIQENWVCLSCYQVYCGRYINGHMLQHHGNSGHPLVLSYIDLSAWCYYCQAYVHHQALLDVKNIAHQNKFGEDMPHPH
Description: as §1

[4] = target: T2, HDAC 8 (Homo sapiens, UniProt Q9BY41); assay: Fluorometric HDAC assay, recombinant HDAC8; type: biochemical
T2 construct: purchased Active Motif, Belgium
T2 sequence (Q9BY41 1-377): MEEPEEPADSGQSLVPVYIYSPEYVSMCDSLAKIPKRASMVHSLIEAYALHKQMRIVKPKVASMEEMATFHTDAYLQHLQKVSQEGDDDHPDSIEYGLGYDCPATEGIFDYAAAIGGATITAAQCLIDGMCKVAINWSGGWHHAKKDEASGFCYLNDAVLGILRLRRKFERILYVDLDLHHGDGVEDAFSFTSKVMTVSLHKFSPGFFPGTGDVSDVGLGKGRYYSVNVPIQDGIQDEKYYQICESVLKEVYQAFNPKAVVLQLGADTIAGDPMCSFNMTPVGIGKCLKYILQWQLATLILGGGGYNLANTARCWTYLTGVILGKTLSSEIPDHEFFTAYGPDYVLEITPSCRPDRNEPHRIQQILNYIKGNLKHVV
Description: as §1

SMILES: COc1cccc(CC(=O)Nc2ccc(C(=O)NO)cc2)c1 [Compound 363, N-hydroxy-4-[2-(3-methoxyphenyl)acetamido]benzamide]
- IS^b selectivity index for L. infantum ([1]; IC50 THP-1 / IC50 Leishmania infantum (footnote)): <1
- IC50 ([1]; Leishmania infantum, promastigotes, luciferase expressing strain): > 60 µM
- HDACi effect, inhibition at single concentration ([2]; 1.0 μM, screen on HeLa nuclear extract and recombinant HDAC1, 3, 6, 8 (Fig. 2A)): 90%
- IC50 ([2]; HeLa nuclear extract, read-out: HDACi HeLa IC50): 0.085 ± 0.035 µM
- Fold, HDAC 6 ([3]; 363 as compared to SAHA): 34.9
- IC50 ([3]; recombinant protein, read-out: rHDAC 6 IC50): 0.045 ± 0.015 µM
- Fold, HDAC 8 ([4]; 363 as compared to SAHA): 0.26
- IC50 ([4]; recombinant protein, read-out: rHDAC 8 IC50): 0.863 ± 0.045 µM
